Test [1] addresses human V2 receptor (Homo sapiens, UniProt P30518). In words: V2 binding assay (3H-AVP displacement, HEK-293 membranes). The arrangement: expressed in transfected cells; host or cells: HEK-293 (membranes). The following applies: 1.0 μM compound; read-out: V2@1.0, % Inh. In a few lines:
(§1)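 Membranes from transfected HEK-293 cells incubated 1 h at room temperature with ³H-AVP (10,000 cpm) in 50 mM Tris, 5 mM MgCl2, 0.1% BSA, pH 7.5 plus protease inhibitors. Non-specific binding set with 1.25 μM AVP. Bound tracer collected on PEI-soaked GF/C filters and counted by scintillation.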

Test [2] addresses T1, human V1b receptor (Homo sapiens, UniProt P47901).
T1 sequence (P47901 1-424): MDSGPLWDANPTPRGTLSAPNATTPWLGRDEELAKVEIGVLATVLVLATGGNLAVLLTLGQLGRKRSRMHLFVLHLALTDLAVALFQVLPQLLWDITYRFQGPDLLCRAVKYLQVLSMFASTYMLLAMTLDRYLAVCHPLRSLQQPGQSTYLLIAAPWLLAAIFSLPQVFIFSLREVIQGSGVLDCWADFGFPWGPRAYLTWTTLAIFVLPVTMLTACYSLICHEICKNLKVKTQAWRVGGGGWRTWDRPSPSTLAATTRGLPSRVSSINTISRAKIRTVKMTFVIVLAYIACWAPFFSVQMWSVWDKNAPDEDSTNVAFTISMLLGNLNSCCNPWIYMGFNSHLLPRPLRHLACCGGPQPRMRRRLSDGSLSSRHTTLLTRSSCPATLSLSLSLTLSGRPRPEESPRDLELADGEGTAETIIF
In words: V1b binding assay (3H-AVP displacement, HEK-293 membranes). The following applies: for inhibition at 10 µM: 10 μM compound, read-out: V1b % Inh @10; for inhibition at 1 µM: 1.0 μM compound, read-out: V1b@1.0, % Inh. The arrangement: expressed in transfected cells; host or cells: HEK-293 (membranes). In a few lines:
as §1

The target of test [3] is human V1a receptor (Homo sapiens, UniProt P37288). Put plainly: V1a binding assay (3H-AVP displacement, HEK-293 membranes). Details: expressed in transfected cells; host or cells: HEK-293 (membranes). The following applies: for inhibition at 1 µM: 1.0 μM compound, read-out: V1a@1.0, % Inh. The essentials: as §1
Sequence of human V1a receptor (P37288 whole entry): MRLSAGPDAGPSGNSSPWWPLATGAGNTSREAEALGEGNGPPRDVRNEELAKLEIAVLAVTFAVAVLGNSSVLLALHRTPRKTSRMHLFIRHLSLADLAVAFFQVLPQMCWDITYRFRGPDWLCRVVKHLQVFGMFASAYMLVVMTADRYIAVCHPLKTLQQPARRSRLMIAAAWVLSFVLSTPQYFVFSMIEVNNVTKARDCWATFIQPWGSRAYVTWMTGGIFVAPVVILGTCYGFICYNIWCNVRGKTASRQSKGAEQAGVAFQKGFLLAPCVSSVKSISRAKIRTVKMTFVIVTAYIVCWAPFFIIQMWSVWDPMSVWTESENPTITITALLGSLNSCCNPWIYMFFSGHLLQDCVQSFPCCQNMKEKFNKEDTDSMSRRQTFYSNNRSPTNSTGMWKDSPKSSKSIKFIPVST
Test [4] deals with T2, NPY2 receptors (Homo sapiens, UniProt P49146).
T2 construct: Cell Membranes from KAN-TS cells having NPY2 receptors; endogenous in cells; host or cells: KAN-TS cells (membranes)
T2 sequence (P49146 1-381): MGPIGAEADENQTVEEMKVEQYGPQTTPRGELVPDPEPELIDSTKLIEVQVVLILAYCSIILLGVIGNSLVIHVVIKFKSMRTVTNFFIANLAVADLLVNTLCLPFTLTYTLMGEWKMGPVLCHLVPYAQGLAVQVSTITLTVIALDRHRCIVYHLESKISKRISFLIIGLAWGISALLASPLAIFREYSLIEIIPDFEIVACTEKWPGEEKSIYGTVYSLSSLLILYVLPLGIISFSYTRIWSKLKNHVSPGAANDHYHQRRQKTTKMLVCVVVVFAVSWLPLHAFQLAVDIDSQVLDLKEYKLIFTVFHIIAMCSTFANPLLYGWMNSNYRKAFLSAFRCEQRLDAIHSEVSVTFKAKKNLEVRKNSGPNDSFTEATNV
In words: Neuropeptide Y receptor binding assay (125I-PYY, KAN-TS cell membranes). As to conditions: 10 μM compound; read-out: NPY-2@10, % Inh. In a few lines: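 Membranes from KAN-TS cells competed with 125I-PYY in binding buffer containing BSA, test compound at 10 μM final, 1 hr at room temperature. Nonspecific binding defined with 1 μM PYY final. Tubes centrifuged, washed with PBS and bound radioactivity gamma-counted.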

Sequence of human V2 receptor (P30518 whole entry): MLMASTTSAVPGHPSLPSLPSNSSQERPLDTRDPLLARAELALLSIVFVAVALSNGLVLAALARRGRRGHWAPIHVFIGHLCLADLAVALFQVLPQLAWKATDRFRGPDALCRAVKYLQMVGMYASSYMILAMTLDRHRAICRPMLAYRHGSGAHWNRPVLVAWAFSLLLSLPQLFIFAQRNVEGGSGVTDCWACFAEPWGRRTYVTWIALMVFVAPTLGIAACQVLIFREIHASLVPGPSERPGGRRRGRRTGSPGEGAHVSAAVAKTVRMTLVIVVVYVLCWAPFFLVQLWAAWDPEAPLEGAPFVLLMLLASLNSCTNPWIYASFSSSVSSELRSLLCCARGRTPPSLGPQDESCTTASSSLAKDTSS

Turning to `O=c1n(CCCN2CCOCC2)c2ccccc2n1C1CCN(C(=S)NC(c2ccccc2)c2ccccc2)CC1` [Compound 84, 1-[(N1-piperidinocarbothioylbiphenylmethylamino)-4-yl]-3-(3-morpholinopropyl)-1,3-dihydrobenzimidazol-2-one], the inhibition at 1 µM in test [1] is 8%. In addition, the concentration for half-maximal inhibition (IC50) in test [2] amounted to 274 nM; in test [3], 22 nM. For the same molecule, in test [4], the inhibition at 10 µM worked out at 73%.

On to `O=c1[nH]c2ccccc2n1C1CCN(C(=S)NC(c2ccccc2)c2ccc(Cl)cc2)CC1` (stereo not drawn) [Compound 34], for which the inhibition at 1 µM in test [1] was found to be 21%; in test [3], 42%. Further, the inhibition at 10 µM in test [2] stood at 13%; in test [4], 22%.

Regarding `CN(C)c1ccc(CNC(=S)N2CCC(n3c(=O)[nH]c4ccccc43)CC2)cc1` [Compound 24], the inhibition at 1 µM stood at 9% in test [1] and 19% in test [3]. Moreover, the inhibition at 10 µM amounted to 0% in test [2] and 12% in test [4].

`O=C1c2ccccc2C(=O)N1CCCn1c(=O)n(C2CCN(C(=S)NC(c3ccccc3)c3ccccc3)CC2)c2ccccc21` [Compound 54, 1-[(N1-Piperidinocarbothioyldiphenylmethylamino)-4-yl]-3-(3-N-phthalimidopropyl)-1,3-dihydrobenzimidazol-2-one]: the inhibition at 1 µM in test [1] turned out to be 0%; in test [3] it was 47%. In addition, the inhibition at 10 µM in test [2] stood at 18%; in test [4], 4%.

As to `COc1cc(CNC(=S)N2CCC(n3c(=O)[nH]c4ccccc43)CC2)cc(OC)c1OC` [Compound 20], in test [1], the inhibition at 1 µM turned out to be 0%. The inhibition at 10 µM in test [2] is 0%; in test [3] (10 μM compound, read-out: V1a % Inh @10), 25%; in test [4], 12%.

Turning to `O=C(Nc1ccccc1F)N1CCC(n2c(=O)n(CCCN3CCCCC3)c3ccccc32)CC1` [Compound 114, 1-[(N1-piperidinocarbonyl-2-fluorophenylamino)-4-yl]-3-(3-N-piperidinylpropyl)-1,3-dihydrobenzimidazol-2-one], the inhibition at 1 µM in test [1] stood at 2%; in test [2], 4%; in test [3] it was 1%. Besides, the inhibition at 10 µM in test [4] is 17%.

Take `NC(=O)C(Cc1ccccc1)NC(=S)N1CCC(n2c(=O)[nH]c3ccccc32)CC1` (stereo not drawn) [Compound 47]: the figures for the inhibition at 1 µM in test [1] and in test [3] were 14% and 45%, respectively. Also, the inhibition at 10 µM came to 0% in test [2] and 10% in test [4].

Regarding `O=C(NC(c1ccccc1)c1ccccc1)N1CCC(n2c(=O)n(CCCN3CC=CC3)c3ccccc32)CC1` [Compound 102], the results for the inhibition at 1 µM in test [1] and in test [2] were 6% and 41%, respectively. In test [3], the 50% inhibitory concentration (IC50) came out at 123 nM. Besides, the inhibition at 10 µM in test [4] came out at 23%.

As for `O=c1[nH]c2ccccc2n1C1CCN(C(=S)NCCN2CCOCC2)CC1` [Compound 26], the results for the inhibition at 1 µM in test [1] and in test [3] were 20% and 33%, respectively. Moreover, the inhibition at 10 µM in test [2] came out at 0%; in test [4], 10%.

Take `COc1ccccc1NC(=S)N1CCC(n2c(=O)n(CCCN3CCCCC3)c3ccccc32)CC1` [Compound 119, 1-[(N1-piperidinocarbothioyl-2-methoxyphenylamino)-4-yl]-3-(3-N-piperidinylpropyl)-1,3-dihydrobenzimidazol-2-one]: the figures for the inhibition at 1 µM in test [1], in test [2] and in test [3] were 19%, 29% and 48%, respectively. The molecule also had a half-inhibitory concentration (IC50) in test [3] of 61 nM. For the same molecule, the inhibition at 10 µM in test [4] was found to be 13%.

Take `O=c1n(CCCN2CCCCC2)c2ccccc2n1C1CCN(C(=S)NCc2cccc3ccccc23)CC1` [Compound 112, 1-[(N1-piperidinocarbothioyl-1-naphthalmethylamino)-4-yl]-3-(3-N-piperidinylpropyl)-1,3-dihydrobenzimidazol-2-one]: the inhibition at 1 µM is 0% in test [1] and 32% in test [2]. In test [3], this molecule had an IC50 of 139 nM. Further, in test [4], the inhibition at 10 µM came out at 55%.

`O=c1n(CCCN2CCCCC2)c2ccccc2n1C1CCN(C(=S)Nc2ccccc2F)CC1` [Compound 115, 1-[(N1-piperidinocarbonthioyl-2-fluorophenylamino)-4-yl]-3-(3-N-piperidinylpropyl)-1,3-dihydrobenzimidazol-2-one]: the inhibition at 1 µM in test [1] stood at 11%; in test [2] it was 20%; in test [3] it was 13%. The inhibition at 10 µM in test [4] worked out at 26%.

`Cc1ccccc1NC(=S)N1CCC(n2c(=O)n(CCCN3CCCCC3)c3ccccc32)CC1` [Compound 109, 1-[(N1-piperidinocarbothioyl-2-methylphenylamino)-4-yl]-3-(3-N-piperidinylpropyl)-1,3-dihydrobenzimidazol-2-one]: the inhibition at 1 µM in test [1] was 0%; in test [2], 14%. In test [3], this molecule gave an IC50 of 56 nM. Moreover, in test [4], the inhibition at 10 µM amounted to 58%.

As to `CC1CC(C)CN(CCCn2c(=O)n(C3CCN(C(=S)NC(c4ccccc4)c4ccccc4)CC3)c3ccccc32)C1` (stereo not drawn) [Compound 82], in test [1], the inhibition at 1 µM was found to be 11%. Also, the IC50 in test [2] was found to be 140 nM; in test [3], 6 nM. In test [4], the inhibition at 10 µM is 91%.

Consider `O=C(O)CCn1c(=O)n(C2CCN(C(=S)NC(c3ccccc3)c3ccccc3)CC2)c2ccccc21` [Compound 61, 1-[(N1-Piperidinocarbothioyldiphenylmethylamino)-4-yl]-3-(2-carboxyethyl)-1,3-dihydrobenzimidazol-2-one], for which the inhibition at 1 µM in test [1] came to 0%; in test [3] it was 17%. The inhibition at 10 µM in test [2] came to 22%; in test [4], 90%.

As for `CC(NC(=S)N1CCC(n2c(=O)[nH]c3ccccc32)CC1)c1ccc(F)cc1` (stereo not drawn) [Compound 27], the inhibition at 1 µM in test [1] was found to be 20%; in test [3], 33%. The inhibition at 10 µM in test [2] came to 0%; in test [4], 15%.

Regarding `O=c1n(CCCN2CCCCC2)c2ccccc2n1C1CCN(C(=S)NCc2ccccc2)CC1` [Compound 105, 1-[(N1-piperidinocarbothioylbenzylamino)-4-yl]-3-(3-N-piperidinylpropyl)-1,3-dihydrobenzimidazol-2-one], the figures for the inhibition at 1 µM in test [1], in test [2] and in test [3] were 0%, 30% and 58%, respectively. Moreover, the half-maximal inhibitory concentration (IC50) in test [3] amounted to 188 nM. Further, the inhibition at 10 µM in test [4] was found to be 12%.

For `O=c1n(CCCO)c2ccccc2n1C1CCN(C(=S)NC(c2ccccc2)c2ccccc2)CC1` [Compound 108, 1-[(N1-piperidinocarbothioylbiphenylmethylamino)-4-yl]-3-(3-hydroxypropyl)-1,3-dihydrobenzimidazol-2-one], the inhibition at 1 µM stood at 16% in test [1] and 37% in test [2]. The molecule further showed an IC50 in test [3] of 579 nM. The inhibition at 10 µM in test [4] turned out to be 41%.

In the case of `O=C(NC(c1ccccc1)c1ccccc1)N1CCC(n2c(=O)n(CCCN3CCCC3)c3ccccc32)CC1` [Compound 96, 1-[(N1-piperidinocarbonyldiphenylmethylamino)-4-yl]-3-(3-N-pyrrolidinylpropyl)-1,3-dihydrobenzimidazol-2-one], the inhibition at 1 µM in test [1] is 0%; in test [2] it was 43%. In test [3], the IC50 is 79 nM. Also, the inhibition at 10 µM in test [4] is 20%.

(Values after patent US6653478B2, “Substituted benzimidazol-2-ones as vasopressin receptor antagonists and neuropeptide Y modulators” (Ortho-McNeil Pharmaceutical, Inc., priority 2000, dated 2003).)
